These compounds were tested against human NEP (Homo sapiens (Human), UniProt P08473) (assay: In vitro enzyme inhibition assay at human NEP). Details: pKi, recombinant human NEP, fluorogenic peptide substrate, 37° C.
Chain of human NEP (P08473 52-750): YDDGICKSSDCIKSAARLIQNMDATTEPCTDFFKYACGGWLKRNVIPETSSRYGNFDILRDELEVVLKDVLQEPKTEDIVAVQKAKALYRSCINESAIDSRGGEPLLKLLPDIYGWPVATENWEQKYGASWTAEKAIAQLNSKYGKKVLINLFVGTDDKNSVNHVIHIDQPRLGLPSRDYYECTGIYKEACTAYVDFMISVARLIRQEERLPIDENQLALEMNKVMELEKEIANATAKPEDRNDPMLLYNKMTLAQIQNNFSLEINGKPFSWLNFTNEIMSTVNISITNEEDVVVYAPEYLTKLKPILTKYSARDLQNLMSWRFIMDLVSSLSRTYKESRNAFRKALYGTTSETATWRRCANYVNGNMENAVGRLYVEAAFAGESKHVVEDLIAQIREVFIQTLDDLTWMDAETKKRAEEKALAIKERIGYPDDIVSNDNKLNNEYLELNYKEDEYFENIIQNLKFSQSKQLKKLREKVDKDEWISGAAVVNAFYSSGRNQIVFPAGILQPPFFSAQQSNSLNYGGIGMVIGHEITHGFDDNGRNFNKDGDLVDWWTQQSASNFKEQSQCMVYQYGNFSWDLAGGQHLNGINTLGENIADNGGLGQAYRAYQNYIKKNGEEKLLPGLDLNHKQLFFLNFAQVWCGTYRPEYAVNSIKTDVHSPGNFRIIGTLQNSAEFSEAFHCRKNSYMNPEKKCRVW

| SMILES | Ki |
| --- | --- |
| O=C(N[C@H](Cc1ccc(-c2cc(Cl)ccc2F)cc1)C[C@@H](Cc1noc(=O)[nH]1)C(=O)O)c1cnn[nH]1 [Example 66, (2S,4S)-5-(5′-Chloro-2′-fluorobiphenyl-4-yl)-2-(5-oxo-4,5-dihydro-[1,2,4]oxadiazol-3-ylmethyl)-4-[(3H-[1,2,3]triazole-4-carbonyl)amino]pentanoic Acid] | 1.26 to 3.16 nM |
| O=C(N[C@H](Cc1ccc(-c2cc(Cl)ccc2F)cc1)C[C@@H](CN1CCOCC1)C(=O)O)c1c[nH]nn1 [Example 69a, (2S,4S)-5-(5′-Chloro-2′-fluorobiphenyl-4-yl)-2-morpholin-4-ylmethyl-4-[(1H-[1,2,3]triazole-4-carbonyl)amino]pentanoic Acid] | 1.26 to 3.16 nM |
| O=C(N[C@H](Cc1ccc(-c2cc(Cl)ccc2F)cc1)C[C@@H](CN1CCC1)C(=O)O)c1cnn[nH]1 [Example 84b, (2S,4S)-2-Azetidin-1-ylmethyl-5-(5′-chloro-2′-fluorobiphenyl-4-yl)-4-[(3H-[1,2,3]triazole-4-carbonyl)amino]pentanoic Acid] | ≤ 1 nM |
| COCCN(C)C[C@H](C[C@@H](Cc1ccc(-c2cc(Cl)ccc2F)cc1)NC(=O)c1cnn[nH]1)C(=O)O [Example 85a, (2S,4S)-5-(5′-Chloro-2′-fluorobiphenyl-4-yl)-2-{[(2-methoxyethyl)methylamino]methyl}-4-[(3H-[1,2,3]triazole-4-carbonyl)amino]pentanoic Acid] | ≤ 1 nM |
| N#CC1CN(C[C@H](C[C@@H](Cc2ccc(-c3cc(Cl)ccc3F)cc2)NC(=O)c2cnn[nH]2)C(=O)O)C1 [Example 88b, (2S,4S)-5-(5′-Chloro-2′-fluorobiphenyl-4-yl)-2-(3-cyanoazetidin-1-ylmethyl)-4-[(3H-[1,2,3]triazole-4-carbonyl)amino]pentanoic Acid] | ≤ 1 nM |
| CC1(C)CN(C[C@H](C[C@@H](Cc2ccc(-c3cc(Cl)ccc3F)cc2)NC(=O)c2cnn[nH]2)C(=O)O)C1 [Example 89b, (2S,4S)-5-(5′-Chloro-2′-fluorobiphenyl-4-yl)-2-(3,3-dimethylazetidin-1-ylmethyl)-4-[(3H-[1,2,3]triazole-4-carbonyl)amino]pentanoic Acid] | ≤ 1 nM |
| O=C(N[C@H](Cc1ccc(-c2cc(Cl)ccc2F)cc1)C[C@@H](CN1CC(F)(F)C1)C(=O)O)c1cnn[nH]1 [Example 90b, (2S,4S)-5-(5′-Chloro-2′-fluorobiphenyl-4-yl)-2-(3,3-difluoroazetidin-1-ylmethyl)-4-[(3H-[1,2,3]triazole-4-carbonyl)amino]pentanoic Acid] | ≤ 1 nM |
| O=C(N[C@H](Cc1ccc(-c2cc(Cl)ccc2F)cc1)C[C@@H](CN1CC(F)C1)C(=O)O)c1cnn[nH]1 [Example 91b, (2S,4S)-5-(5′-Chloro-2′-fluorobiphenyl-4-yl)-2-(3-fluoroazetidin-1-ylmethyl)-4-[(3H-[1,2,3]triazole-4-carbonyl)amino]pentanoic Acid] | ≤ 1 nM |

Further lines, results first:

| Ki | SMILES |
| --- | --- |
| 3.16 to 10 nM | NCCCC(=O)NC[C@H](C[C@@H](Cc1ccc(-c2cc(Cl)ccc2F)cc1)NC(=O)c1cnn[nH]1)C(=O)O [Example 68, (2S,4S)-2-[(4-Aminobutyrylamino)methyl]-5-(5′-chloro-2′-fluorobiphenyl-4-yl)-4-[(3H-[1,2,3]triazole-4-carbonyl)amino]pentanoic acid] |
| 1.26 to 3.16 nM | COCCCNC[C@H](C[C@@H](Cc1ccc(-c2cc(Cl)ccc2F)cc1)NC(=O)c1cnn[nH]1)C(=O)O [Example 74, (2S,4S)-5-(5′-Chloro-2′-fluorobiphenyl-4-yl)-2-[(3-methoxypropylamino)-methyl]-4-[(3H-[1,2,3]triazole-4-carbonyl)amino]pentanoic Acid] |
| 1.26 to 3.16 nM | CN(C)C[C@H](C[C@@H](Cc1ccc(-c2cc(Cl)ccc2F)cc1)NC(=O)c1cnn[nH]1)C(=O)O [Example 75, (2S,4S)-5-(5′-Chloro-2′-fluorobiphenyl-4-yl)-2-dimethylaminomethyl-4-[(3H-[1,2,3]triazole-4-carbonyl)amino]pentanoic Acid] |
| 3.16 to 10 nM | O=C(N[C@H](Cc1ccc(-c2cc(Cl)ccc2F)cc1)C[C@@H](CNCCF)C(=O)O)c1cnn[nH]1 [Example 81, (2S,4S)-5-(5′-Chloro-2′-fluorobiphenyl-4-yl)-2-[(2-fluoroethylamino)methyl]-4-[(3H-[1,2,3]triazole-4-carbonyl)amino]pentanoic Acid] |
| ≤ 1 nM | O=C(N[C@H](Cc1ccc(-c2cc(Cl)ccc2F)cc1)C[C@@H](CNCC(F)F)C(=O)O)c1cnn[nH]1 [Example 82a, (2S,4S)-5-(5′-Chloro-2′-fluorobiphenyl-4-yl)-2-[(2,2-difluoroethylamino)methyl]-4-[(3H-[1,2,3]triazole-4-carbonyl)amino]pentanoic Acid] |
| ≤ 1 nM | O=C(N[C@H](Cc1ccc(-c2cc(Cl)ccc2F)cc1)C[C@@H](CN1CC(O)C1)C(=O)O)c1cnn[nH]1 [Example 83b, (2S,4S)-5-(5′-Chloro-2′-fluorobiphenyl-4-yl)-2-(3-hydroxyazetidin-1-ylmethyl)-4-[(3H-[1,2,3]triazole-4-carbonyl)amino]pentanoic Acid] |
| ≤ 1 nM | O=C(N[C@H](Cc1ccc(-c2cc(Cl)ccc2F)cc1)C[C@@H](CNCCCO)C(=O)O)c1cnn[nH]1 [Example 87b, (2S,4S)-5-(5′-Chloro-2′-fluorobiphenyl-4-yl)-2-[(3-hydroxypropylamino)methyl]-4-[(3H-[1,2,3]triazole-4-carbonyl)amino]pentanoic Acid] |

Same assay, conditions: recombinant human NEP, fluorogenic peptide substrate, 37° C.

| SMILES | pKi |
| --- | --- |
| COC(=O)NCC(=O)N[C@H](C[C@@H](Cc1ccc(-c2cc(Cl)ccc2F)cc1)NC(=O)c1c[nH]nn1)C(=O)O [Example 67, (2R,4R)-5-(5′-Chloro-2′-fluorobiphenyl-4-yl)-2-(2-methoxycarbonylaminoacetylamino)-4-[(1H-[1,2,3]triazole-4-carbonyl)amino]pentanoic Acid] | ≧9.0 |
| NCCCCCC(=O)N[C@H](C[C@@H](Cc1ccc(-c2cc(Cl)ccc2F)cc1)NC(=O)c1c[nH]nn1)C(=O)O [Example 70, (2R,4R)-2-(6-Aminohexanoylamino)-5-(5′-chloro-2′-fluorobiphenyl-4-yl)-4-[(1H-[1,2,3]triazole-4-carbonyl)amino]pentanoic Acid] | ≧9.0 |
| CNCCCC(=O)N[C@H](C[C@@H](Cc1ccc(-c2cc(Cl)ccc2F)cc1)NC(=O)c1c[nH]nn1)C(=O)O [Example 71, (2R,4R)-5-(5′-Chloro-2′-fluorobiphenyl-4-yl)-2-(4-methylamino-butyrylamino)-4-[(1H-[1,2,3]triazole-4-carbonyl)amino]pentanoic Acid] | ≧9.0 |
| NCCCCC(=O)N[C@H](C[C@@H](Cc1ccc(-c2cc(Cl)ccc2F)cc1)NC(=O)c1c[nH]nn1)C(=O)O [Example 72, (2R,4R)-2-(5-Amino-pentanoylamino)-5-(5′-chloro-2′-fluorobiphenyl-4-yl)-4-[(1H-[1,2,3]triazole-4-carbonyl)amino]pentanoic Acid] | ≧9.0 |
| CN(C)CCCC(=O)N[C@H](C[C@@H](Cc1ccc(-c2cc(Cl)ccc2F)cc1)NC(=O)c1c[nH]nn1)C(=O)O [Example 73, (2R,4R)-5-(5′-Chloro-2′-fluorobiphenyl-4-yl)-2-(4-dimethylaminobutyrylamino)-4-[(1H-[1,2,3]triazole-4-carbonyl)amino]pentanoic Acid] | ≧9.0 |
| COC[C@H](C[C@@H](Cc1ccc(-c2cccc(Br)c2)cc1)NC(=O)c1cnn[nH]1)C(=O)O [Example 80, (2S,4S)-5-(3′-Bromobiphenyl-4-yl)-2-methoxymethyl-4-[(3H-[1,2,3]triazole-4-carbonyl)amino]pentanoic Acid] | ≧9.0 |
